According to publication PMC11855207, “Synthesis and Evaluation of Aromatic A-Ring 23-Oxavitamin D3 Analogues as Hedgehog Pathway Inhibitors” (International Journal of Molecular Sciences, 2025):

Key:
full-length human Smo = biological target: T1, full-length human Smo (Homo sapiens, UniProt Q99835); assay: BODIPY-Cyc displacement (flow cytometry) in HEK293T cells overexpressing Smo; assay type: binding; details: up to 10 μM
T1 construct: HEK293T cells overexpressing full-length human Smo was evaluated; expressed in transfected cells; host or cells: HEK293T

[1] = test system: primary Ptch-CKO MB cells; assay: Anti-proliferation (MTS) in primary Ptch-CKO MB cells; assay type: cell-based; details: Mus musculus, 48 h incubation, mean ± SEM
Method: Ptch-CKO MB cells, derived from a conditional Patched knockout mouse, lack Ptch-like ASZ001 cells. Consequently, the inhibitory effect of the compound on Ptch-CKO MB cells directly reflects its suppression of the canonical Hh signaling pathway. Cell viability was assessed by MTS proliferation assay kit (Promega, Madison, WI, USA) according to the manufacturer’s protocol. Culture conditions and experimental protocols to determine GI50 values in the primary murine Ptch-CKO MB cells were as previously described.

ASZ001 cells = assay: Anti-proliferation (MTS) in ASZ001 cells; assay type: cell-based; details: Mus musculus, 48 h incubation, mean ± SEM
[2] = test system: Hh signaling (Gli1 mRNA) in SuFu−/− C3H10T1/2 cells; assay: Gli1 down-regulation in SuFu−/− C3H10T1/2 cells; assay type: cell-based, mouse; details: 24 h
[3] = test system: Hh signaling pathway (Gli1 mRNA) in C3H10T1/2 cells; assay: Gli1 mRNA down-regulation (qPCR) in OHC-stimulated C3H10T1/2 cells; assay type: cell-based, mouse; details: Mus musculus; for mrna remaining at 5 µM: C3H 10T1/2, 5 μM with OHCs 5 μM, 24 h, relative Gli1 mRNA levels compared to OHCs (set to 100%); for IC50: C3H 10T1/2, mean ± SEM
Method: (§1) The VD3 analogues were initially assessed for their ability to inhibit the Hh signaling pathway by evaluating the effects on endogenous Gli1 mRNA levels at a single concentration (5 μM) co-administration of oxysterols (OHCs; 20(S)-hydroxycholesterol, 22(S)-hydroxycholesterol at 5 μM each) in C3H10T1/2 cells, an Hh-dependent mouse embryonic fibroblast (MEF) cell line. […] VD3 derivatives may retain some VDR agonistic activity, thereby compromising the selectivity of these compounds as Hh inhibitors. The selectivity profile of the analogues for Hh inhibition, compared to typical VDR activation, was assessed by measuring the ability to up-regulate Cyp24a1 mRNA levels in the same cellular system and by evaluating their binding to VDR using a fluorescence polarization-based competition assay (Table 1).
(§2) Mouse embryonic fibroblast cell line (C3H10T1/2, wild-type, VDR^−/−, SuFu^−/−), mouse keratinocyte cell line (ASZ001), and human embryonic kidney cell line (HEK293T) were purchased from China Center for Type Culture Collection (CCTCC; Wuhan, Hubei, China) and cultured under standard protocols. […] Therefore, they can be used to assess the inhibitory strength of the Hh signaling and the selectivity of the VDR signaling. VDR^−/− and SuFu^−/− C3H10T1/2 cells were used to study compounds selectivity for Hh and VDR signaling. If compounds regulate Hh signaling independently of VDR, their ability to down-regulate Gli1 mRNA expression should be abolished in SuFu^−/− C3H10T1/2 cells. […] The loss of Ptch in ASZ001 cells […], so down-regulating Gli1 reflects direct Smo inhibition by the compound. Comparing results from ASZ001 and C3H10T1/2 cells highlights the compound’s inhibition of the Hh signaling pathway.
(§3) RNA isolation in C3H10T1/2 cells was performed in 24-well plates (50,000 cells plated; TRIZOL Reagent); in ASZ001, cells were done in 35 mm dishes (300,000 cells plated; TRIZOL Reagent). cDNA synthesis was performed utilizing the SweScript All-in-One RT SuperMix Kit (Servicebio, Wuhan, China) per the manufacturer’s instructions on a BioRad S1000 Thermal Cycler (Hercules, CA, USA). qPCR (Hh signaling pathway and VDR) analysis of target genes was performed on Step OnePlus (ABI) using the Taqman Gene Expression Assays: mouse ActB (Mm00607939_s1), mouse GLI1 (Mm00494645_ml), mouse PTCH1(Mm00436026_m1), and mouse CYP24A1 (Mm00487244_ml). Relative gene expression levels were computed via the ΔΔCt method. ActinB mRNA expression levels of all samples were normalized to DMSO control ActinB mRNA levels (vehicle; set at 1.00). […] The mRNA expression levels from drug-treated samples were compared to OHCs levels (Gli1, PTCH) and DMSO control (Cyp24A1).

[4] = test system: VDR signaling (Cyp24A1 mRNA) in C3H10T1/2 cells; assay: Cyp24A1 mRNA up-regulation (qPCR) in C3H10T1/2 cells; assay type: cell-based, mouse; details: Mus musculus, C3H 10T1/2, 5 μM with OHCs 5 μM, 24 h, relative to DMSO (set to 1.0)
Method: as §1, §2, §3

recombinant VDR = biological target: T2, recombinant VDR (Homo sapiens, UniProt P11473); assay: VDR binding, fluorescence polarization-based competition assay (PolarScreen VDR Competitor Assay Red); details: compounds evaluated at 100 μM
T2 construct: purchased Thermo Fisher Scientific
T2 sequence (P11473 1-427): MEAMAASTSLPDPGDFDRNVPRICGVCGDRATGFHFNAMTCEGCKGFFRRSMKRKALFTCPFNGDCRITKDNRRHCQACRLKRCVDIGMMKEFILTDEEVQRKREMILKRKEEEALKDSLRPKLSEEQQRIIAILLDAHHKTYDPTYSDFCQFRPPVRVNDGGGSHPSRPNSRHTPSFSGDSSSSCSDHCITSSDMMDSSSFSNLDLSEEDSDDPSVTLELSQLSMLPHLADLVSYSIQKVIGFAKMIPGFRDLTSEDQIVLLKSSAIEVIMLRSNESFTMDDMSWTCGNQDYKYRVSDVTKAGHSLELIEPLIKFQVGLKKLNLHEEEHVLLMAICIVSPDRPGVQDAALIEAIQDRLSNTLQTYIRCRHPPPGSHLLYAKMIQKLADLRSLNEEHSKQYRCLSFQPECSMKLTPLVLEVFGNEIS
Method: as §1
VDR binding assay was performed using a PolarScreen VDR Competitor Assay Red kit (Thermo Fisher Scientific, Carlsbad, CA, USA) per the manufacturer’s instructions. Compounds were evaluated at 100 μM in 2.5% final DMSO in triplicate. Calcitriol is utilized as a positive control for VDR binding.

[5] = test system: Hh signaling pathway (Ptch mRNA) in C3H10T1/2 cells; assay: Ptch mRNA down-regulation (qPCR) in C3H10T1/2 cells; assay type: cell-based; details: Mus musculus, C3H 10T1/2; C3H10T1/2 cells; mean ± SEM; read-out: Ptch IC50
[6] = test system: Hh signaling pathway (Gli1 mRNA) in ASZ001 cells; assay: Gli1 mRNA down-regulation (qPCR) in ASZ001 cells; assay type: cell-based; details: Mus musculus; ASZ001 cells; mean ± SEM; read-out: Gli1 IC50
[7] = test system: VDR signaling (Cyp24A1 mRNA) in ASZ001 cells; assay: Cyp24A1 mRNA expression (qPCR) in ASZ001 cells; assay type: cell-based; details: Mus musculus; ASZ001 cells; 5 μM, 24 h; DMSO set to 1.0; read-out: Cyp24A1 mRNA levels relative to DMSO
[8] = test system: Hh signaling (Gli1 mRNA) in VDR−/− C3H10T1/2 cells; assay: Gli1 down-regulation in VDR−/− C3H10T1/2 cells; assay type: cell-based, mouse; details: 24 h
[9] = test system: Cyp24A1 mRNA in VDR−/− C3H10T1/2 cells; assay: Cyp24A1 up-regulation in VDR−/− C3H10T1/2 cells; assay type: cell-based, mouse; details: 24 h
[10] = test system: Cyp24A1 mRNA in SuFu−/− C3H10T1/2 cells; assay: Cyp24A1 up-regulation in SuFu−/− C3H10T1/2 cells; assay type: cell-based, mouse; details: 24 h
Smo protein = biological target: T3, Smo protein (Homo sapiens, UniProt Q99835); assay: Surface plasmon resonance (SPR) binding to Smo; details: 2.5, 5, 10 μM in PBS, 4 °C
T3 construct: purchased ACRO Biosystems SMO-H52P3
Method: Surface plasmon resonance (SPR) was used to evaluate the binding capacity of the compounds 3j and 4i to Smo. […] To investigate the binding sites of the analogues on Smo, the ability of 3j and 4i to displace BODIPY-Cyc from HEK293T cells overexpressing full-length human Smo was evaluated. […] Smo contains two small molecule binding sites, one located in the extracellular cysteine-rich domain (CRD) and the other in the 7-transmembrane helix (7-TM) region. […] Endogenous oxidized sterols can regulate Smo activity by binding CRD [27]. These analogues, as mimetics of steroid hormones, may interact with Smo by binding to CRD.
SPR analysis was conducted as described in papers. The analyses of interactions between Smo protein (ACRO Biosystems, SMO-H52P3, Newark, DE, USA) and compounds at different concentrations (2.5, 5, 10 μM) was performed in PBS and a flow rate of 2 μL/s at 4 °C. The sensor chip surface was regenerated by injection of 0.5% SDS: Glycine-HCl (pH = 2.0) = 1:1 solution.

Hh signaling pathway = assay: Anti-Hh activity in combination with vismodegib; assay type: cell-based; details: combined with vismodegib 100 nM

T1 sequence (Q99835 28-787): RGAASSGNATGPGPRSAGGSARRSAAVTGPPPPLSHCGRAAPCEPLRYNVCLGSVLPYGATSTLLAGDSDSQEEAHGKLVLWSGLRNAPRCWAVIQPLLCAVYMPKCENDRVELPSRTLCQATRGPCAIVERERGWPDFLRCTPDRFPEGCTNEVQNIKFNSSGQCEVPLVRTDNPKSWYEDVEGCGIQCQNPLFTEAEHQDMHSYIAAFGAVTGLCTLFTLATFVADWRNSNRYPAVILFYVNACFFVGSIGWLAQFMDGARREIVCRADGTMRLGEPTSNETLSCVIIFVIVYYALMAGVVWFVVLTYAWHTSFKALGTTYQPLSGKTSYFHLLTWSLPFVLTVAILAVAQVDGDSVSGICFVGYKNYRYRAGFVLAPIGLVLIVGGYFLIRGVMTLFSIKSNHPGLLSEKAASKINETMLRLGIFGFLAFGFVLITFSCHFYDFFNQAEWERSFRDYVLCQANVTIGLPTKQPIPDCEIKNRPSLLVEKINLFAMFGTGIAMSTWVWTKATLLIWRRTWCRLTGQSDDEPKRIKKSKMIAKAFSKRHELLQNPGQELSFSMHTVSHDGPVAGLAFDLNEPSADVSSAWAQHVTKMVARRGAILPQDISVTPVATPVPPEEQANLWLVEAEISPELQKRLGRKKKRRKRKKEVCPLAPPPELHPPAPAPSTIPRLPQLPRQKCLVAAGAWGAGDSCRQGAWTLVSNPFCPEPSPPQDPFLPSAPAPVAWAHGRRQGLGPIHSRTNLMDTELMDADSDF
T3 sequence (Q99835 28-787): as above

SMILES | Displacement of BODIPY-Cyc from Smo (full-length human Smo) | Displacement of BODIPY-Cyc from Smo (full-length human Smo; listed as Cyc) | GI50 [1] [µM] | GI50 (ASZ001 cells) [µM] | Ability to inhibit Hh signaling (Gli1 down-regulation) versus wild-type cells [2] | mrna remaining at 5 µM [3] [%] | IC50 [3] [µM] | fold induction at 5 µM [4] | VDR Binding (recombinant VDR) [µM] | IC50 [5] [µM] | IC50 [6] [µM] | fold induction at 5 µM [7] | Ability to inhibit Hh signaling (Gli1 down-regulation) versus wild-type cells [8] | Ability to up-regulate Cyp24A1 versus wild-type cells [9] | Ability to up-regulate Cyp24A1 versus wild-type cells [10] | SPR interaction with Smo (Smo protein) | Change of IC50 value in combination with vismodegib (Hh signaling pathway)
CC1=C2C[C@H]3[C@@H](CC=C4C[C@@H](O)CC[C@@]43C)[C@@H]2CC[C@]12O[C@@H]1C[C@H](C)CN[C@H]1[C@H]2C [Cyclopamine, reference compound] | displaced BODIPY-Cyc in a concentration-dependent manner | displaced BODIPY-Cyc in a dose-dependent manner | – | – | – | – | – | – | – | – | – | – | – | – | – | – | –
CS(=O)(=O)c1ccc(C(=O)Nc2ccc(Cl)c(-c3ccccn3)c2)c(Cl)c1 [Vismodegib, reference compound] | – | – | 0.78 ± 0.1 | 2.1 | no activity | – | – | – | – | – | – | – | – | – | – | – | –
CC(C)COC[C@@H](C)[C@H]1CC[C@H]2[C@@H](OC(=O)c3ccc(O)cc3)CCC[C@]12C [Compound 3k] | – | – | > 10 | > 20 | – | 7.3 ± 1.9 | 3.8 ± 0.4 | 32.1 ± 3.2 | >100 | 10.3 ± 1.1 | 6.2 ± 1.1 | 5.8 ± 0.3 | – | – | – | – | –
C[C@H](COCC(C)(C)O)[C@H]1CC[C@H]2[C@@H](OC(=O)c3cc(O)cc(O)c3)CCC[C@]12C [Compound 4i] | neither 3j nor 4i affected BODIPY-Cyc-Smo binding interactions | – | 2.2 ± 0.3 | 5.8 ± 0.8 | mostly abolished | 1.7 ± 0.3 | 1.1 ± 0.1 | 129 ± 16.8 | >100 | 1.9 ± 0.3 | 1.8 ± 0.3 | 87.4 ± 10.6 | modestly reduced | significantly reduced | significantly reduced | exhibited interactions with Smo | did not change the IC50 value
CC(C)COC[C@@H](C)[C@H]1CC[C@H]2[C@@H](OC(=O)c3cc(O)cc(O)c3)CCC[C@]12C [Compound 3j] | neither 3j nor 4i affected BODIPY-Cyc-Smo binding interactions | – | 6.7 ± 0.8 | 13.4 ± 1.4 | mostly abolished | 2.4 ± 0.4 | 1.8 ± 0.3 | 11.4 ± 1.3 | >100 | 3.6 ± 0.5 | 5.5 ± 0.7 | 2.1 ± 0.3 | modestly reduced | significantly reduced | significantly reduced | exhibited interactions with Smo | did not change the IC50 value
